Reference: US20190055280A1, “TRANSITION METAL-BASED SELECTIVE FUNCTIONALIZATION OF CHALCOGENS IN BIOMOLECULES” (Massachusetts Institute of Technoloy, priority 2014, published 2019)
Read-outs that look alike come from different tables or passages of the source. Peptide text beside a SMILES is read from it. * marks the point of attachment. Succinimide(1-Et,3-yl) = CCN1C(=O)CC(*)C1=O; Bn = c1ccc(C*)cc1; X1 = Cc1ccc(*)cc1; Cam = NC(=O)C*

Assay: Stability evaluation of peptide P1 cysteine conjugates in the presence of base, acid or an external thiol nucleophile (LC-MS)
Assay type: physicochemical
Details: for stability toward acids (in words): acidic conditions; for stability toward bases (in words): basic conditions; for stability toward external thiol nucleophiles (in words): exogenous thiol
Description: All reported yields were determined by integrating TIC spectra. First, the peak areas for all relevant peptide-containing species on the chromatogram were integrated using Agilent MassHunter software package. Since no peptide-based side products were generated in the experiments, the yields shown in Table 2 were determined as follows: % yield=Spr/Stotal where Spr is the peak area of the product and Stotal is the peak area of combined peptide-containing species (product and starting material). The yield of the stapled peptide (Example 19) was calculated as follows: % yield=k·Spr/Sst where Spr is the peak area of the reaction product, Sst is the peak area of a known amount of purified product, and k equals to the ratio of the known amount of standard divided by the initial amount of starting material. For peptide stability experiments the conversion was calculated as following: % remaining peptide=St/S0 where St is the peak area of the corresponding cysteine conjugate at time t, and S0 is the peak area of the cysteine conjugate at time 0.
Peptide P1 conjugates were pre-dissolved in water in plastic Eppendorfs to afford the 1.11 mM stock solutions used in the stability evaluation experiments. For each experiment, the corresponding cysteine conjugate (1.11 mM; 18 μL) and stability test reagent (2 μL, 50 mM in H2O or 50 mM in 1M Tris, pH 7.4) were combined in a plastic Eppendorf and left at rt for 2 days, followed by 4 days at 37° C. After this time, individual reactions were quenched with a solution of 50% A:50% B (v/v, 200 μL) and the resulting samples were analyzed by LC-MS.
Stability test reagent: K2CO3 (2 μL, 50 mM in H2O); Final conditions before quenching: 1 mM peptide, 5 mM K2CO3; 2 d at rt, then 4 d at 37° C.
Stability test reagent: HCl (2 μL, 1 M in H2O); Final conditions before quenching: 1 mM peptide, 0.1 M HCl; 2 d at rt, then 4 d at 37° C.
Stability test reagent: Glutathione (2 μL, 50 mM in 1 M Tris; pH 7.4); Final conditions before quenching: 1 mM peptide, 5 mM GSH, 0.1M Tris, pH 7.4; 2 d at rt, then 4 d at 37° C.

[1] = 5 mM aqueous K2CO3, 1 mM peptide, 5 mM K2CO3, 2 d at rt, then 4 d at 37° C., read-out: % remaining peptide, base
[2] = 0.1 M Tris buffer with 5 mM glutathione, 1 mM peptide, 5 mM GSH, 0.1M Tris, pH 7.4, 2 d at rt, then 4 d at 37° C., read-out: % remaining peptide, GSH
[3] = 0.1 M aqueous HCl, 1 mM peptide, 0.1 M HCl, 2 d at rt, then 4 d at 37° C., read-out: % remaining peptide, acid

remaining at 144 h, 1 mM [1] [%]	remaining at 144 h, 1 mM [2] [%]	remaining at 144 h, 1 mM [3] [%]	stability toward acids (in words)	stability toward bases (in words)	stability toward external thiol nucleophiles (in words)	% remaining peptide, base (1 mM peptide, 5 mM K2CO3, 2 d at rt, then 4 d at 37° C.) [%]	SMILES
84	88	85					CC(C)C[C@H](NC(=O)CNC(=O)[C@H](C)NC(=O)[C@H](CSCc1ccccc1)NC(=O)CNC(=O)[C@H](CC(C)C)NC(=O)[C@H](Cc1ccc(O)cc1)NC(=O)[C@H](Cc1ccccc1)NC(=O)[C@H](CC(N)=O)NC(=O)[C@H](CO)NC(=O)[C@@H](N)CCCNC(=N)N)C(=O)N[C@@H](C)C(=O)N[C@@H](Cc1c[nH]cn1)C(=O)N[C@@H](CC(=O)O)C(=O)N[C@@H](CCCCN)C(=O)N[C@@H](C)C(=O)N[C@H](C(N)=O)[C@@H](C)O (H-RSNFYLGC(Bn)AGLAHDKAT-NH2)
66	85	63	unstable	unstable			CC(C)C[C@H](NC(=O)CNC(=O)[C@H](C)NC(=O)[C@H](CSCC(N)=O)NC(=O)CNC(=O)[C@H](CC(C)C)NC(=O)[C@H](Cc1ccc(O)cc1)NC(=O)[C@H](Cc1ccccc1)NC(=O)[C@H](CC(N)=O)NC(=O)[C@H](CO)NC(=O)[C@@H](N)CCCNC(=N)N)C(=O)N[C@@H](C)C(=O)N[C@@H](Cc1c[nH]cn1)C(=O)N[C@@H](CC(=O)O)C(=O)N[C@@H](CCCCN)C(=O)N[C@@H](C)C(=O)N[C@H](C(N)=O)[C@@H](C)O (H-RSNFYLGC(Cam)AGLAHDKAT-NH2)
0	37	84		decomposed	decomposed		CCN1C(=O)CC(SC[C@H](NC(=O)CNC(=O)[C@H](CC(C)C)NC(=O)[C@H](Cc2ccc(O)cc2)NC(=O)[C@H](Cc2ccccc2)NC(=O)[C@H](CC(N)=O)NC(=O)[C@H](CO)NC(=O)[C@@H](N)CCCNC(=N)N)C(=O)N[C@@H](C)C(=O)NCC(=O)N[C@@H](CC(C)C)C(=O)N[C@@H](C)C(=O)N[C@@H](Cc2c[nH]cn2)C(=O)N[C@@H](CC(=O)O)C(=O)N[C@@H](CCCCN)C(=O)N[C@@H](C)C(=O)N[C@H](C(N)=O)[C@@H](C)O)C1=O (stereo partly shown) (H-RSNFYLGC(Succinimide(1-Et,3-yl))AGLAHDKAT-NH2)
	90	83	stable	stable	stable	83	Cc1ccc(SC[C@H](NC(=O)CNC(=O)[C@H](CC(C)C)NC(=O)[C@H](Cc2ccc(O)cc2)NC(=O)[C@H](Cc2ccccc2)NC(=O)[C@H](CC(N)=O)NC(=O)[C@H](CO)NC(=O)[C@@H](N)CCCNC(=N)N)C(=O)N[C@@H](C)C(=O)NCC(=O)N[C@@H](CC(C)C)C(=O)N[C@@H](C)C(=O)N[C@@H](Cc2c[nH]cn2)C(=O)N[C@@H](CC(=O)O)C(=O)N[C@@H](CCCCN)C(=O)N[C@@H](C)C(=O)N[C@H](C(N)=O)[C@@H](C)O)cc1 (H-RSNFYLGC(X1)AGLAHDKAT-NH2)
